Like-named read-outs stand apart in the source and are kept apart here.
System: HIV-1 luciferase reporter virus in U87-CD4-CCR5 cells
Assay: HIV Replication (luciferase) assay
Assay type: cell-based
Protocol: Luciferase Replication Assay:
Plasmids encoding the full length genome of HIV-1 pNL-4-Luc with the gp120 V-3 loop replaced by the Bgl II fragment of HIV-1 ADA, YU-2 or HxB (ADA-Luc-FL, YU-2-Luc-FL and HxB-Luc-FL) are obtained from Dr. Susan Pontow (Washington University, St. Louis Mo.). Replication-competent luciferase reporter virus stocks are generated by transfection of plasmids into 293T cells using Superfect (Qiagen) or Mirus transfection reagents. Viral stocks are collected 48 hours following transfection and titered for luciferase production on U-87-CCR5 or CXCR4 cells. U87-CD4-CCR5 cells (10^4/well) are plated in 96-well cell culture plates and incubated overnight. Media is removed and replaced with 50 μl of fresh culture media (DMEM, 10% FCS) and 50 μl of compound diluted in culture medium. Cells are incubated with compound at 37° C. for 1 hour. The resultant supernatant is removed and replaced with 20 μl of media containing compound and infected with an equal volume of diluted or undiluted virus stock at 37° C. for 3-4 hours. The cells are washed once with DMEM, and 200 μl of media containing compound is added. The cultures are incubated for 3 days, the cells lysed in luciferase lysis buffer (Promega, Madison, Wis.) and transferred to Immulon plates (Dynex Technologies, Chantilly Va.). An equal volume of luciferase substrate (Promega, Madison Wis.) is added to lysates and the plates read immediately in a Wallac Luminometer. Fifty and ninety percent inhibitory concentrations are determined using GraphPad PRISM software.

[1] = Human immunodeficiency virus 1, U87/CD4/CCR5, read-out: HIV Replication (luciferase) IC50
[2] = Human immunodeficiency virus 1, U87/CD4/CCR5

Structure (SMILES)	IC50 [1] [pM]	IC50 [2] [pM]
Cc1ncnc(C)c1C(=O)N1CCC(C)(N2CCC(N(Cc3ccccc3)c3ccc(Br)c(C(F)(F)F)c3)CC2)CC1 [Compound 38]	3000	
Cc1cc(-c2cc[n+]([O-])cc2)cc(C)c1C(=O)N1CCC(C)(N2CCC(N(c3ccccc3)c3ccc(C(F)(F)F)nc3)CC2)CC1 [Compound 82]	100	
Cc1ncnc(C)c1C(=O)N1CCC(C)(N2CCC(N(Cc3ccccc3)c3ccc(CCNS(=O)(=O)CC(F)(F)F)cc3)CC2)CC1 [Compound 57]	400	
Cc1ncnc(C)c1C(=O)N1CCC(C)(N2CCC(N(c3ccccc3)c3cccc(F)c3)CC2)CC1 [Compound 93]	210	
Cc1ncnc(C)c1C(=O)N1CCC(C)(N2CCC(N(Cc3ccccc3)C3CCCN(S(=O)(=O)C4CC4)C3)CC2)CC1 (centres unmarked) [Compound 112]		30000
Cc1ncnc(C)c1C(=O)N1CCC(C)(N2CCC(N(Cc3ccccc3)c3cccc(F)c3)CC2)CC1 [Compound 31]	440	
Cc1ncnc(C)c1C(=O)N1CCC(C)(N2CCC(N(Cc3ccccc3)c3ccc(Cl)cc3)CC2)CC1 [Compound 12]	200	
Cc1ncnc(C)c1C(=O)N1CCC(C)(N2CCC(N(Cc3ccccc3)C3CCN(Cc4ccccc4)CC3)CC2)CC1 [Compound 4]	1700	
C=CCOC(=O)NCCc1ccc(N(Cc2ccccc2)C2CCN(C3(C)CCN(C(=O)c4c(C)ncnc4C)CC3)CC2)cc1 [Compound 54]	600	
Cc1ncnc(C)c1C(=O)N1CCC(C)(N2CCC(N(Cc3ccccc3)c3ccc(CCN)cc3)CC2)CC1 [Compound 55]	3500	
Cc1ncnc(C)c1C(=O)N1CCC(C)(N2CCC(N(Cc3ccccc3)c3cccc(C(=O)NO)c3)CC2)CC1 [Compound 64]	4000	
Cc1ncnc(C)c1C(=O)N1CCC(C)(N2CCC(N(Cc3ccccc3)c3ccccc3)CC2)CC1 [Compound 9]	3000	
CCc1ccc(N(Cc2ccccc2)C2CCN(C3(C)CCN(C(=O)c4c(C)ncnc4C)CC3)CC2)cc1 [Compound 41]	< 100	
Cc1ncnc(C)c1C(=O)N1CCC(C)(N2CCC(N(Cc3ccccc3)C3CCN(S(=O)(=O)c4ccc(Cl)cc4)CC3)CC2)CC1 [Compound 6]	900	
Cc1ncnc(C)c1C(=O)N1CCC(C)(N2CCC(N(CC3CCCCC3)c3ccc(Br)cc3)CC2)CC1 [Compound 98]	2000	
Cc1ncnc(C)c1C(=O)N1CCC(C)(N2CCC(N(Cc3ccccc3)c3ccc(F)cc3)CC2)CC1 [Compound 14]	100	
C=CCOC(=O)c1ccc(N(Cc2ccccc2)C2CCN(C3(C)CCN(C(=O)c4c(C)ncnc4C)CC3)CC2)cc1 [Compound 58]	2000	
Cc1ncnc(C)c1C(=O)N1CCC(C)(N2CCC(N(Cc3ccccc3)c3cccc(Br)c3)CC2)CC1 [Compound 17]	100	
Cc1ncnc(C)c1C(=O)N1CCC(C)(N2CCC(N(Cc3ccccc3)c3cccc(C(=O)Nc4ccccc4)c3)CC2)CC1 [Compound 65]	2000	
Cc1cc(N(Cc2ccccc2)C2CCN(C3(C)CCN(C(=O)c4c(C)ncnc4C)CC3)CC2)ccc1Br [Compound 28]	220	
Cc1ncnc(C)c1C(=O)N1CCC(C)(N2CCC(N(c3ccccc3)c3ccc(C(F)(F)F)cn3)CC2)CC1 [Compound 76]	200	
CCc1ccc(N(c2ccccc2)C2CCN(C3(C)CCN(C(=O)c4c(C)ncnc4C)CC3)CC2)cc1 [Compound 100]	100	
Cc1ncnc(C)c1C(=O)N1CCC(C)(N2CCC(N(Cc3ccccc3)c3cccc(OC(F)(F)F)c3)CC2)CC1 [Compound 24]	200	
COc1cccc(N(Cc2ccccc2)C2CCN(C3(C)CCN(C(=O)c4c(C)ncnc4C)CC3)CC2)c1 [Compound 33]	530	
CCN(CC)C(=O)c1cccc(N(Cc2ccccc2)C2CCN(C3(C)CCN(C(=O)c4c(C)ncnc4C)CC3)CC2)c1 [Compound 63]	6000	

Structure (SMILES)	IC50 [1] [pM]	IC50 [2] [pM]
Cc1ncnc(C)c1C(=O)N1CCC(C)(N2CCC(N(Cc3ccccc3)c3cccc(C(F)(F)F)c3)CC2)CC1 [Compound 20]	200	
Cc1ncnc(C)c1C(=O)N1CCC(C)(N2CCC(N(c3ccccc3)c3ccc(I)cc3)CC2)CC1 [Compound 107]	1000	
Cc1ncnc(C)c1C(=O)N1CCC(C)(N2CCC(N(Cc3ccccc3)c3ccc(Cl)c4cccnc34)CC2)CC1 [Compound 51]	320	
Cc1ncnc(C)c1C(=O)N1CCC(C)(N2CCC(N(c3ccccc3)c3ccccc3F)CC2)CC1 [Compound 104]	3000	
Cc1ncnc(C)c1C(=O)N1CCC(C)(N2CCC(N(c3ccccc3)c3ccc(C(F)(F)F)nc3)CC2)CC1 [Compound 69]		110
Cc1ncnc(C)c1C(=O)N1CCC(C)(N2CCC(N(Cc3ccccc3)c3ccc(C(C)(C)C)cc3)CC2)CC1 [Compound 21]	1000	
Cc1ncnc(C)c1C(=O)N1CCC(C)(N2CCC(N(Cc3ccccc3)c3ccn(Cc4ccccc4)n3)CC2)CC1 [Compound 46]	2000	
Cc1ncnc(C)c1C(=O)N1CCC(C)(N2CCC(N(c3ccccc3)c3cc(Cl)cc(Cl)c3)CC2)CC1 [Compound 92]	4100	
COCCN(c1ccc(Br)cc1)C1CCN(C2(C)CCN(C(=O)c3c(C)ncnc3C)CC2)CC1 [Compound 103]	2000	
Cc1ncnc(C)c1C(=O)N1CCC(C)(N2CCC(N(c3ccccc3)c3cc(F)cc(F)c3)CC2)CC1 [Compound 101]	100	
Cc1ncnc(C)c1C(=O)N1CCC(C)(N2CCC(N(c3ccccc3)c3ccccc3)CC2)CC1 [Compound 72]	300	
Cc1ncnc(C)c1C(=O)N1CCC(C)(N2CCC(N(c3ccccc3)c3ccc(Br)c(C(F)(F)F)c3)CC2)CC1 [Compound 95]	2000	
Cc1ncnc(C)c1C(=O)N1CCC(C)(N2CCC(N(Cc3ccccc3)c3ccc(Cl)c(Cl)c3)CC2)CC1 [Compound 26]	300	
Cc1ncnc(C)c1C(=O)N1CCC(C)(N2CCC(N(Cc3ccccc3)c3cccc4cccnc34)CC2)CC1 [Compound 53]	600	
Cc1ncnc(C)c1C(=O)N1CCC(C)(N2CCC(N(Cc3ccccc3)c3ccc(CCNS(C)(=O)=O)cc3)CC2)CC1 [Compound 47]	50	
Cc1ncnc(C)c1C(=O)N1CCC(C)(N2CCC(N(c3ccccc3)c3ccc(Oc4ccccc4)cc3)CC2)CC1 [Compound 105]	5000	
Cc1ncnc(C)c1C(=O)N1CCC(C)(N2CCC(N(Cc3ccccc3)c3ccc(I)cc3)CC2)CC1 [Compound 23]	100	
Cc1ncnc(C)c1C(=O)N1CCC(C)(N2CCC(N(Cc3ccccc3)c3cccc(C#N)c3)CC2)CC1 [Compound 44]	100	
Cc1ncnc(C)c1C(=O)N1CCC(C)(N2CCC(N(Cc3ccccc3)c3cccc(C(=O)NC4CC4)c3)CC2)CC1 [Compound 68]	2000	
Cc1ncnc(C)c1C(=O)N1CCC(C)(N2CCC(N(Cc3ccccc3)c3ccncc3)CC2)CC1 [Compound 108]		800
Cc1ncnc(C)c1C(=O)N1CCC(C)(N2CCC(N(Cc3ccccc3)c3ccc(C(F)(F)F)nc3)CC2)CC1 [Compound 13]	200	
Cc1ncnc(C)c1C(=O)N1CCC(C)(N2CCC(N(Cc3ccccc3)c3ccc(C(C)C)cc3)CC2)CC1 [Compound 22]	200	
CCCN(c1cccc2cccnc12)C1CCN(C2(C)CCN(C(=O)c3c(C)ncnc3C)CC2)CC1 [Compound 110]		23000
Cc1ncnc(C)c1C(=O)N1CCC(C)(N2CCC(N(Cc3ccccc3)c3cccc(C(=O)NCCO)c3)CC2)CC1 [Compound 67]	6000	
Cc1ncnc(C)c1C(=O)N1CCC(C)(N2CCC(N(c3ccccc3)c3ccc(OC(F)(F)F)cc3)CC2)CC1 [Compound 70]	1000	

Source: patent US7442703B2, “Piperidine derivatives useful as CCR5 antagonists” (priority 2001, dated 2008)
